The text below walks through data of patent US20260138959A1, “QUINAZOLINE DERIVATIVE COMPOUND AND USE THEREOF” (VORONOI INC., priority 2021, published 2026).

In test [1] the target is T1, human PDGFR-β(wt) (Homo sapiens, UniProt P09619).
T1 construct: purchased Signalchem P13-11G
The experiment in a line: Enzyme inhibitory activity, ADP-Glo kinase assay, PDGFR-β(wt). In kind it is biochemical. As to conditions: read-out: PDGFR-β (IC50 class). How it is done:
In order to evaluate the inhibitory activity of the compounds synthesized according to the above examples on PDGFR-α(wt), PDGFR-β(wt), c-KIT(wt), and c-KIT(D816V) kinases, the following method was performed. The compounds of examples were reacted with purified human PDGFR-α(wt) (Signalchem #P12-18G) enzyme, human PDGFR-β(wt) (Signalchem #P13-11G) enzyme, human c-KIT(wt) (Signalchem #K06-11BG) enzyme, human c-KIT(D816V) (Signalchem #C06-12LG) enzyme, and the enzyme inhibitory abilities were evaluated by the following method.
The reaction buffer was used as a composition of 40 mM Tris-HCl pH7.4, 20 mM MgCl2, 0.5 mg/ml BSA, 50 μM DTT, and the reactions of all the tests were carried out on the reaction buffer. The compound was diluted in 12 steps using a serial dilution method from a 10 mM DMSO stock, and the enzyme activity was measured at a final compound concentration of 10˜0.00005645 μM. During the test, the enzyme activity was confirmed using in vitro ADP-Glo™ kinase assay (Promega) after reacting with the proper concentration of human PDGFR-α(wt) enzyme, human PDGFR-β(wt), human c-KIT(wt) enzyme, and human c-KIT(D816V) enzyme with purified ATP and enzyme substrate at 25° C. for 1˜2 hours. At a ratio of 2:2:1, an enzyme-active reaction solution, an ADP-Glo reaction solution, and an enzyme-active detection solution were reacted to measure the inhibition of the enzyme's activity with luminoscence. Based on the […] of the enzyme activity of the solvent control that was not treated with the compound, the degree of enzyme activity inhibition was calculated according to the treatment concentration of each compound, and the concentration of each compound that inhibits 50% of enzyme activity was determined as IC50 (nM) value and the value was obtained by using GraphPad Prism 8.3.0 (GraphPad software Inc., San Diego) software. (A: IC50≤50 nM; B: 50 nM<IC50≤100 nM; C: 100 nM<IC50≤500 nM; D: IC50>500 nM).
(ADP-Glo turns the ADP formed in a reaction into a luminescent signal.)

Test [2] deals with Ba/F3-TEL-PDGFβ(WT). The experiment in a line: Proliferation inhibitory activity on Ba/F3 cell (CellTiter-Glo, 72 hours), PDGFR-β. As to conditions: Mus musculus, BaF3, read-out: Ba/F3 (nM) Tel-PDGFRβ (GI50 class). Type of test: cell-based. How it is done: Ba/F3-TEL-PDGFRα(WT), Ba/F3-TEL-PDGFβ(WT), Ba/F3-c-KIT(D816V) (Kyinno, #KC-0138), c-KIT V560G/D816V, c-KIT D814Y were seeded at 3×10^3/100 μl/well in a clear bottom white 96-well plate. A culture solution containing compounds of 12 concentrations (0.00001-2 mM) serially diluted in 3 folds and the DMSO control group was added at 0.5 μl/well each to a final concentration of 0.00005-10 μM, and then incubated in a CO2 incubator at 37° C. for 72 hours. After 72 hours, the plate treated with the compound was taken out, CellTiter-Glo® Assay (Promega) solution was treated with 100 μl/well, followed by mixing well. After mixing well for about 10 minutes at room temperature, […] was measured using a microplate reader. The data were presented as percentages in proportion to treated cells based on the vehicle, GI50 (nM) values were calculated using GraphPad Prism 8.3.0 (GraphPad software Inc., San Diego).
The inhibitory activities of Ba/F3 expressing PDGFR-α, PDGFR-β, c-KIT(D816V), c-KIT V560G/D816V, and c-KIT D814Y measured as described above were measured and shown in Table 7 below (A: GI50≤200 nM; B: 200 nM<GI50≤500 nM; C: GI50>500 nM).
(In ATP-based viability assays light output follows the ATP content of the culture.)

Test [3] relates to c-KIT V560G/D816V. Briefly: Proliferation inhibitory activity on Ba/F3 cell (CellTiter-Glo, 72 hours), c-KIT V560G/D816V. Type of test: cell-based. As to conditions: Mus musculus, BaF3, c-KIT V560G/D816V cells, read-out: Cell (nM) c-KIT V560G/D816V (GI50 class). In outline: (§1)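 Ba/F3 lines dependent on the indicated kinase, seeded at 3×10^3 cells/well, treated with 12 three-fold dilutions at 0.00005–10 μM final for 72 h at 37 °C. Viability read by CellTiter-Glo luminescence relative to DMSO vehicle; GI50 derived from curve fit.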

Test [4] concerns Ba/F3-c-KIT(D816V). The experiment in a line: Proliferation inhibitory activity on Ba/F3 cell (CellTiter-Glo, 72 hours), c-KIT(D816V). Type of test: cell-based. As to conditions: Mus musculus, BaF3, read-out: Ba/F3 (nM) c-KIT (D816V) (GI50 class). In outline:
as §1

Some results are limits rather than exact numbers.

T1 sequence (P09619 33-1106): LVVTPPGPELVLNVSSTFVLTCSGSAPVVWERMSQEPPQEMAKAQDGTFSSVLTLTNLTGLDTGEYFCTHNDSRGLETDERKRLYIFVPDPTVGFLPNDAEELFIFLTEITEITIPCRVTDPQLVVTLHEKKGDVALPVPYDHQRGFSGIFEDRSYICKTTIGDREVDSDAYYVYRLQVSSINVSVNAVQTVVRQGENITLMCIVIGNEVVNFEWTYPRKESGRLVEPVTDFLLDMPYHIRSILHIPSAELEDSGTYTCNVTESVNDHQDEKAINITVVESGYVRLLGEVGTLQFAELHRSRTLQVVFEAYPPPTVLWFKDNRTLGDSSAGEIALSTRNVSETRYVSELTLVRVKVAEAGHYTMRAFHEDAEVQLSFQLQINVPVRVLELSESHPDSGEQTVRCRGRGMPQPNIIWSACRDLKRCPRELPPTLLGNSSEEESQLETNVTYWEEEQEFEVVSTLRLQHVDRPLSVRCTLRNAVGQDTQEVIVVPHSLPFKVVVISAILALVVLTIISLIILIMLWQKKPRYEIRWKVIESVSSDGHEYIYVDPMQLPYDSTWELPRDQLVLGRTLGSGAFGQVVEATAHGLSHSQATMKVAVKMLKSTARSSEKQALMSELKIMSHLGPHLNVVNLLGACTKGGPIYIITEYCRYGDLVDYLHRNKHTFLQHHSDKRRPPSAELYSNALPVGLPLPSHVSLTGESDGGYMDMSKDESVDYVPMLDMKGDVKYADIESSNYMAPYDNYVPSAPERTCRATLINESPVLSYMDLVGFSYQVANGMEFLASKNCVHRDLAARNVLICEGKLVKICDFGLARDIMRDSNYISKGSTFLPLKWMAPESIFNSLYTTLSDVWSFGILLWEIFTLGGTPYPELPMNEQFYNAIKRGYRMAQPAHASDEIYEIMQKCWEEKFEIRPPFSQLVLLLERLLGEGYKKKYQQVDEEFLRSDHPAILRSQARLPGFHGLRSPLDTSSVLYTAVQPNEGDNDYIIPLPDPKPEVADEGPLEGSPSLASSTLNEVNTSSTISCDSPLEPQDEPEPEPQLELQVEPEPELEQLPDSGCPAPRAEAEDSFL

Turning to `COc1cc2c(-c3ccc(NC(=O)Cc4ccc(C(F)(F)F)nc4)cc3)ncnc2cc1OCC1CCN(C(C)C)CC1` [Example 121, N-(4-(7-((1-isopropylpiperidin-4-yl)methoxy)-6-methoxyquinazolin-4-yl)phenyl)-2-(6-(trifluoromethyl)pyridin-3-yl)acetamide], the IC50 – broadly, the concentration needed to halve the response being measured – in test [1] was not above 50 nM. Further, the GI50 in test [2] and in test [3] was not above 200 nM throughout.
For `CCN1CCCC(COc2cc3ncnc(-c4ccc(NC(=O)Cc5ccc(OC)nc5)cc4)c3cc2OC)C1` (stereo not shown) [Example 109, N-(4-(7-((1-ethylpiperidin-3-yl)methoxy)-6-methoxyquinazolin-4-yl)phenyl)-2-(6-methoxypyridin-3-yl)acetamide], the IC50 in test [1] is not above 50 nM. Moreover, the GI50 in test [2] and in test [3] was not above 200 nM throughout.
As for `COCCN1CCC(COc2cc3ncnc(-c4ccc(NC(=O)Cc5ccc6c(c5)OCO6)cc4)c3cc2OC)CC1` [Example 98, 2-(benzo[d][1,3]dioxol-5-yl)-N-(4-(6-methoxy-7-((1-(2-methoxyethyl)piperidin-4-yl)methoxy)quinazolin-4-yl)phenyl)acetamide], the IC50 in test [1] is not above 50 nM. Further, the GI50 in test [2] and in test [3] was not above 200 nM each time.
`COc1cc2c(-c3ccc(NC(=O)Cc4ccc5c(c4)OCO5)c(F)c3)ncnc2cc1OCCCN1CCN(C)CC1` [Example 163, 2-(benzo[d][1,3]dioxol-5-yl)-N-(2-fluoro-4-(6-methoxy-7-(3-(4-methylpiperazin-1-yl)propoxy)quinazolin-4-yl)phenyl)acetamide]: the IC50 in test [1] was not above 50 nM. In addition, the GI50 in test [2] is not above 200 nM.
In the case of `COc1cc2c(-c3ccc(NC(=O)Cc4ccc5c(c4)OCO5)cc3)ncnc2cc1OCCCN1CCN(C)CC1` [Example 54, 2-(benzo[d][1,3]dioxol-5-yl)-N-(4-(6-methoxy-7-(3-(4-methylpiperazin-1-yl)propoxy)quinazolin-4-yl)phenyl)acetamide], the IC50 in test [1] is not above 50 nM. Also, the GI50 in test [2] is not above 200 nM.
With `COCCN1CCC(COc2cc3ncnc(-c4ccc(NC(=O)Cc5ccc(Cl)nc5)cc4)c3cc2OC)CC1` [Example 113, 2-(6-chloropyridin-3-yl)-N-(4-(6-methoxy-7-((1-(2-methoxyethyl)piperidin-4-yl)methoxy)quinazolin-4-yl)phenyl)acetamide], the IC50 in test [1] was not above 50 nM. Besides, the GI50 in test [2] and in test [3] was not above 200 nM throughout.
Consider `COc1cc2c(-c3ccc(NC(=O)Cc4ccc5c(c4)OCO5)c(C)c3)ncnc2cc1OCCCN1CCN(C)CC1` [Example 164], for which the IC50 in test [1] was not above 50 nM. In test [2], the GI50 was not above 200 nM.
`COc1cc2c(-c3ccc(NC(=O)Cc4ccc(C(F)(F)F)cc4)c(C)c3)ncnc2cc1OCCCN1CCN(C)CC1` [Example 49, N-(4-(6-methoxy-7-(3-(4-methylpiperazin-1-yl)propoxy)quinazolin-4-yl)-2-methylphenyl)-2-(4-(trifluoromethyl)phenyl)acetamide]: the IC50 in test [1] is not above 50 nM. For the same compound, the GI50 in test [2] was not above 200 nM.
On the same counts, the results for `COc1cc2c(-c3ccc(C(=O)NCc4ccc(C(F)(F)F)cc4)cc3)ncnc2cc1OCCCN1CCN(C)CC1` [Example 165, 4-(6-methoxy-7-(3-(4-methylpiperazin-1-yl)propoxy)quinazolin-4-yl)-N-(4-(trifluoromethyl)benzyl)benzamide] are not above 50 nM and not above 200 nM.
On the same counts, the results for `COc1cc2c(-c3ccc(C(=O)NCc4ccc(F)c(F)c4)cc3)ncnc2cc1OCCCN1CCN(C)CC1` [Example 167, N-(3,4-difluorobenzyl)-4-(6-methoxy-7-(3-(4-methylpiperazin-1-yl)propoxy)quinazolin-4-yl)benzamide] are not above 50 nM and not above 200 nM.
In the case of `COc1cc2c(-c3ccc(C(=O)NCc4ccc5c(c4)OCO5)cc3)ncnc2cc1OCCCN1CCN(C)CC1` [Example 166, N-(benzo[d][1,3]dioxol-5-ylmethyl)-4-(6-methoxy-7-(3-(4-methylpiperazin-1-yl)propoxy)quinazolin-4-yl)benzamide], the IC50 in test [1] is not above 50 nM. Also, in test [2], the GI50 was not above 200 nM.
Consider `COc1ccc(CC(=O)Nc2ccc(-c3ncnc4cc(OCC5CCN(C)CC5)c(OC)cc34)cc2)cn1` [Example 100, N-(4-(6-methoxy-7-((1-methylpiperidin-4-yl)methoxy)quinazolin-4-yl)phenyl)-2-(6-methoxypyridin-3-yl)acetamide], for which the IC50 in test [1] is not above 50 nM. In addition, the GI50 in test [2] and in test [3] was not above 200 nM throughout.
Turning to `COc1cc2c(-c3ccc(NC(=O)C(C)c4ccco4)cc3)ncnc2cc1OCCCN1CCN(C)CC1` (stereo not shown) [Example 48, 2-(furan-2-yl)-N-(4-(6-methoxy-7-(3-(4-methylpiperazin-1-yl)propoxy)quinazolin-4-yl)phenyl)propanamide], the IC50 in test [1] was not above 50 nM. Besides, the GI50 in test [2] was not above 200 nM.
Consider `COCCN1CCC(COc2cc3ncnc(-c4ccc(NC(=O)Cc5ccc6c(c5)OCO6)c(C)c4)c3cc2OC)CC1` [Example 53, 2-(benzo[d][1,3]dioxol-5-yl)-N-(4-(6-methoxy-7-((1-(2-methoxyethyl)piperidin-4-yl)methoxy)quinazolin-4-yl)-2-methylphenyl)acetamide], for which the GI50 in test [2] was not above 200 nM.
For the compound `COc1cc2c(-c3ccc(NC(=O)Nc4cccc(C(F)(F)F)c4)cc3)ncnc2cc1OCCCN1CCN(C)CC1` [Example 169], the GI50 in test [2] is not above 200 nM.
Same read-out and setting: in the case of `COCCN1CCC(COc2cc3ncnc(-c4ccc(NC(=O)Cc5ccc6c(c5)OCO6)c(F)c4)c3cc2OC)CC1` [Example 52, 2-(benzo[d][1,3]dioxol-5-yl)-N-(2-fluoro-4-(6-methoxy-7-((1-(2-methoxyethyl)piperidin-4-yl)methoxy)quinazolin-4-yl)phenyl)acetamide] it was not above 200 nM.
Regarding `COc1cc2c(-c3ccc(NC(=O)Cc4cscn4)cc3)ncnc2cc1OCCCN1CCN(C)CC1` [Example 51, N-(4-(6-methoxy-7-(3-(4-methylpiperazin-1-yl)propoxy)quinazolin-4-yl)phenyl)-2-(thiazole-4-yl)acetamide], the IC50 in test [1] is not above 50 nM. Moreover, the GI50 in test [2] is not above 200 nM.
Take `COc1cc2ncnc(-c3ccc(NC(=O)Cc4ccc(C(F)(F)F)cc4)cc3)c2cc1OC(=O)N1CCN(C)CC1` [Example 132, 7-methoxy-4-(4-(2-(4-(trifluoromethyl)phenyl)acetamido)phenyl)quinazolin-6-yl 4-methylpiperazin-1-carboxylate]: the figures for the GI50 in test [2], in test [4] and in test [3] were not above 200 nM, not above 200 nM and more than 500 nM, respectively.
In the case of `COCCOc1cc2ncnc(-c3ccc(NC(=O)Cc4ccc(C(F)(F)F)nc4)cc3)c2cc1OC` [Example 118, N-(4-(6-methoxy-7-(2-methoxyethoxy)quinazolin-4-yl)phenyl)-2-(6-(trifluoromethyl)pyridin-3-yl)acetamide], the GI50 in test [2] and in test [3] was not above 200 nM each time.
As to `COc1cc2c(-c3ccc(NC(=O)Cc4ccc(C(F)(F)F)cc4)c(F)c3)ncnc2cc1OCCCN1CCN(C)CC1` [Example 50, N-(2-fluoro-4-(6-methoxy-7-(3-(4-methylpiperazin-1-yl)propoxy)quinazolin-4-yl)phenyl)-2-(4-(trifluoromethyl)phenyl)acetamide], the IC50 in test [1] was not above 50 nM. In addition, the GI50 in test [2] was not above 200 nM.
